# Experimental data: PMC2671563 (PLoS Biology, 2009)
# Like-named read-outs stand apart in the source and are kept apart here.
# Key:
# [1] = target: T1, human S100A9 (Homo sapiens, UniProt P06702); test: SPR: human S100A9 binding to immobilised ABR-224649 (Q compound), direct binding and displacement
# T1 construct: made in house; host or cells: Escherichia coli (or purified from granulocytes)
# T1 sequence (P06702 1-114): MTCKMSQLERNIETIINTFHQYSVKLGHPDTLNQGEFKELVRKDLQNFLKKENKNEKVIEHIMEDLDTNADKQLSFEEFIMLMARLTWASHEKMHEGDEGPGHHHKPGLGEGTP
# Experimental: (§1) The SPR analysis was carried out with the Biacore 3000 system (GE Healthcare). Sensor chips, amine coupling kit, immobilization and running buffers, and regeneration solutions were obtained from GE Healthcare. Working solutions of all reagents used for Biacore analysis were prepared in 0.01 M Hepes, 0.15 M NaCl (pH 7.4) containing 0.005% v/v Surfactant P-20 (HBS-P; GE Healthcare) by buffer exchange on Fast Protein Desalting Micro-Spin Columns from Pierce. ABR-215757 was immobilised onto a CM5 chip through an amino-linker (ABR-224649). […] Activity of ligands after immobilisation was tested by injecting specific antibodies (unpublished data). In some experiments, S100A9 was immobilized either by random amine coupling or with a known orientation (i.e., by sulhydryl group conjugation to the only cysteine in S100A9 at position 3).
# (§2) Binding to the various surfaces was performed by injecting the analyte at a flow rate of 30 μl/min in a physiological buffer (HBS-P) containing 1 mM Ca^2+ and 10 μM Zn^2+ as proposed for S100A8/9 by Robinson et al.. A typical analysis cycle consists of: (1) pumping running buffer for 1 min to obtain a stable baseline; (2) injection of sample for an appropriate period of time (association); (3) pumping running buffer for 2.5 min (dissociation); (4) injection of a short pulse (30 s) of 15 μl 10 mM glycine-HCl (pH 2.0) (regeneration); and (5) pumping running buffer for 2 min (stabilisation after regeneration) at a flow rate of 30 μl/min. […] In one experiment, S100A9 was injected into a buffer with a fixed Ca^2+ concentration (1 mM) and Zn^2+ in the range 0–50 μM. In a second experiment, Ca^2+ was varied from 0–2 mM at a fixed Zn^2+ concentration (10 μM). In subsequent analyses, regeneration was carried out under more mild conditions, i.e., by injecting 30 μl of HBS-P containing 3 mM EDTA (HBS-EP; GE Healthcare) for 60 s, to prolong the lifespan of the chip.
# (§3) Compounds were also injected over the immobilised surfaces in the absence of S100A9 to exclude, or make possible correction for, any direct binding of compound to the surface.
# (§4) Evaluation was carried out using BIAevaluation Software version 3.2 (GE Healthcare). The response at steady-state was obtained by fit of sensorgrams to standard binding models, where appropriate, or calculated as responses at late association or early dissociation phase using the Steady state affinity function in BIAevaluation. Affinity was determined from kinetic analysis (on- and off-rates) or as the apparent affinity after plotting responses versus concentration of analyte in a saturation curve. In the inhibition assay format, the competitor concentration yielding 50% inhibition (IC50) was calculated by fitting data to a one-site competition model in GraphPad Prism.
# [2] = target: T2, human S100A9 binding to human RAGE (Homo sapiens, UniProt P06702); test: SPR: inhibition of human S100A9 binding to immobilised human RAGE
# T2 construct: purchased R&D Systems (RAGE/Fc); S100A9 made in house
# T2 sequence (P06702 1-114): T1 sequence (P06702 1-114)
# Experimental: as §1, §2, §3, §4
# [3] = target: T3, human S100A9 binding to human TLR4/MD2 (Homo sapiens, UniProt P06702); test: SPR: inhibition of human S100A9 binding to immobilised human TLR4/MD2
# T3 construct: purchased R&D Systems (TLR4/MD-2 complex); S100A9 made in house
# T3 sequence (P06702 1-114): T1 sequence (P06702 1-114)
# Experimental: as §1, §2, §3, §4
# [4] = target: T4, mS100A9 (Mus musculus, UniProt P31725); test: SPR: inhibition of mouse S100A9 binding to immobilised ABR-224649; details: Table S1
# T4 construct: made in house; host or cells: Escherichia coli (or purified from granulocytes)
# T4 sequence (P31725 1-113): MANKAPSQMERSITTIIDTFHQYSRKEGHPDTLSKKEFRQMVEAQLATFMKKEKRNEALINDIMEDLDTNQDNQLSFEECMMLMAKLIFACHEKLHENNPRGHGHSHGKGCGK
# Experimental: as §1, §2, §3, §4
# [5] = target: T5, mS100A9 and mRAGE/hFc (Mus musculus, UniProt P31725); test: SPR: inhibition of mouse S100A9 binding to immobilised mouse RAGE
# T5 construct: purchased R&D Systems (mRAGE/Fc); S100A9 made in house
# T5 sequence (P31725 2-113 limits assumed): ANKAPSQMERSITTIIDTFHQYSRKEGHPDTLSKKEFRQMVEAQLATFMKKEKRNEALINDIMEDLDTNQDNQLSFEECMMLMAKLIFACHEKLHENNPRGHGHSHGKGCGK
# Experimental: as §1, §2, §3, §4
# [6] = target: T6, mS100A9 and mLPS-Trap (Mus musculus, UniProt P31725); test: SPR: inhibition of mouse S100A9 binding to immobilised mouse TLR4/MD2 fusion protein (mLPS-Trap)
# T6 sequence (P31725 2-113 limits assumed): T5 sequence (P31725 2-113 limits assumed)
# Experimental: as §1, §2, §3, §4
# [7] = target: T7, mS100A8/A9 and mRAGE (Mus musculus, UniProt P31725); test: SPR: inhibition of mouse S100A8/A9 binding to mouse RAGE; details: Table S1
# T7 construct: purchased R&D Systems (mRAGE/Fc); S100A8/A9 made in house
# T7 sequence (P31725 2-113 limits assumed): T5 sequence (P31725 2-113 limits assumed)
# T7 sequence (P27005 2-89 partner limits assumed): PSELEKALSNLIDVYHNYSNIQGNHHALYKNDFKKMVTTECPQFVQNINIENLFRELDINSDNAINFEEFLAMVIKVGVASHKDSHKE
# Experimental: as §1, §2, §3, §4
# [8] = target: T8, mS100A8/A9 and mLPS-Trap (Mus musculus, UniProt P31725); test: SPR: inhibition of mouse S100A8/A9 binding to mLPS-Trap; details: Table S1; read-out: S100A8-9 binding IC50, mS100A8/A9 TLR4
# T8 sequence (P31725 2-113 limits assumed): T5 sequence (P31725 2-113 limits assumed)
# Experimental: as §1, §2, §3, §4
# [9] = tested on: aEAE development in SLJ/N mice; test: acute experimental autoimmune encephalomyelitis (aEAE) in mice; assay type: in vivo, mouse; details: Mus musculus, read-out: aEAE Inhibition ED50
# Source text: A training set of five quinoline derivatives with structural diversification performed at position 5 of the quinoline ring system was used for the SAR. PCA was used to uncover any relationship between the binding activities of the quinoline derivatives at the S100 proteins and the inhibitory effect of these derivatives in the aEAE model. PLS was then used to model the relationship between the physiochemical descriptors used to characterize the compounds and their biological responses. […] All variables were mean centred and scaled to unit variance.
# [10] = tested on: serum TNFα after LPS challenge; test: LPS-induced systemic TNFα production in C57BL/6 mice; assay type: in vivo, mouse
# Experimental: TNFα induction after intraperitoneal challenge with LPS was performed essentially as described. In brief, mice were pretreated for 2 h with 10 mg/kg ABR-215757 or PBS, after which 3 or 6 μg of LPS was injected intraperitoneally. After an additional 90 min, the animals were sacrificed, and the level of TNFα in blood was determined using commercial TNFα antibodies (eBioscience; http://www.ebioscience.com).
# [11] = target: T9, human RAGE (Homo sapiens, UniProt Q15109); test: SPR: direct binding to immobilised human RAGE; details: unpublished data
# T9 construct: purchased R&D Systems
# T9 sequence (Q15109 23-342 limits assumed): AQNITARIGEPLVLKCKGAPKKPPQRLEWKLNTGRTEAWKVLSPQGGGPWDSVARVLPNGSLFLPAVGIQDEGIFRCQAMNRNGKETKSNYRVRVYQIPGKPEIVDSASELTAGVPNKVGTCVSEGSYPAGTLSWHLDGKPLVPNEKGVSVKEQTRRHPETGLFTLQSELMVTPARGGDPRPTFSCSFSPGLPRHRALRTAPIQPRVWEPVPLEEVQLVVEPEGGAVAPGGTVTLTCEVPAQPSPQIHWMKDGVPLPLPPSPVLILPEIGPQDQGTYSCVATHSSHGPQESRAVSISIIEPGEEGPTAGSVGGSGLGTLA
# Experimental: as §1, with “3). […]” for “3).”
# as §4, with “In the inhibition assay format, the competitor concentration yielding 50% inhibition (IC50) was calculated by fitting data to a one-site competition model in GraphPad Prism.” left out
# [12] = target: T10, human TLR4/MD2 (Homo sapiens, UniProt O00206+Q9Y6Y9); test: SPR: direct binding to immobilised human TLR4/MD2; details: unpublished data
# T10 construct: purchased R&D Systems
# T10 sequence (O00206 24-631 limits assumed): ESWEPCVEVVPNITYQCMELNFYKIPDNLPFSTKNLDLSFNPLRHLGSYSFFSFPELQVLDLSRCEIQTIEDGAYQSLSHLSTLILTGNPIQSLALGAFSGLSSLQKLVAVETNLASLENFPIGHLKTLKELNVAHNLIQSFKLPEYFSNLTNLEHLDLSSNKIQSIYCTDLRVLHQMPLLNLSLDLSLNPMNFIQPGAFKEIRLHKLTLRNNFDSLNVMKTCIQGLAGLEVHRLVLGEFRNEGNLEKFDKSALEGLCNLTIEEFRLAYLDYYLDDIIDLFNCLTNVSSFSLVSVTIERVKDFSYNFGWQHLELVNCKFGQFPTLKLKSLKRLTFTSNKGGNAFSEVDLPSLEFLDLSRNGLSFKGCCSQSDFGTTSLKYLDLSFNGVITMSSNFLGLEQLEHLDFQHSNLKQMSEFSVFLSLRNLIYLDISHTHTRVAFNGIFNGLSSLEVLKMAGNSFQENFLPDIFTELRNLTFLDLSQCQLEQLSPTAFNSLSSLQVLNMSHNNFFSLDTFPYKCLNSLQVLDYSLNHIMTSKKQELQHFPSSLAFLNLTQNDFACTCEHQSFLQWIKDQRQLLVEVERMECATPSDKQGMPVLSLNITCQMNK
# T10 sequence (Q9Y6Y9 19-160): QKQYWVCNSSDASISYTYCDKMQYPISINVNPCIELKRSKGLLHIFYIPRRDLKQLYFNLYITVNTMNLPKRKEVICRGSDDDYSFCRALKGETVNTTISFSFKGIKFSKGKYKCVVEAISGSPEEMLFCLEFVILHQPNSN
# Experimental: as §1, with “3). […]” for “3).”
# as §4, with “In the inhibition assay format, the competitor concentration yielding 50% inhibition (IC50) was calculated by fitting data to a one-site competition model in GraphPad Prism.” left out
# [13] = target: T11, human S100A8 (Homo sapiens, UniProt P05109); test: SPR: human S100A8 binding to immobilised Q compound; details: 100 nM protein
# T11 construct: made in house; host or cells: Escherichia coli or granulocytes
# T11 sequence (P05109 1-93): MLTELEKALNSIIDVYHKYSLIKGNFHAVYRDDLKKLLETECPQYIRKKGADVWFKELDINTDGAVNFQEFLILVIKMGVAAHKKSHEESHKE
# Experimental: as §1
# Binding to the various surfaces was performed by injecting the analyte at a flow rate of 30 μl/min in a physiological buffer (HBS-P) containing 1 mM Ca^2+ and 10 μM Zn^2+ as proposed for S100A8/9 by Robinson et al.. […]
smiles,measurement,setting,value
CCc1cccc2c1c(O)c(C(=O)N(CC)c1ccccc1)c(=O)n2C [ABR-215757],binding of recombinant S100A9 to Q compound coupled to solid phase,[1],bound strongly
same,IC50,"[1]; 100 nM S100A9, competitor 7.81–1,000 μM, one-site competition model, 1 mM Ca2+ and 10 μM Zn2+",37 µM
same,IC50,"[2]; S100A9 binding IC50, hS100A9 RAGE, Table S1",60.5 µM
same,IC50,"[2]; competitor concentration yielding 50% inhibition of S100A9 binding to RAGE surface, 100 nM S100A9, competitor 7.81–1,000 μM, single experiment Figure 2C",26 µM
same,IC50,"[3]; 100 nM S100A9, competitor 7.81 to 1,000 μM, single experiment Figure 3C, read-out: IC50, inhibition of S100A9 binding to immobilised hTLR4/MD2",23 µM
same,IC50,"[3]; Table S1, read-out: S100A9 binding IC50, hS100A9 TLR4",59.7 µM
same,IC50,[4],940 µM
same,competition of mouse S100A9 interaction with solid-phase mouse RAGE,[5]; 100 nM mouse S100A9,competed
same,IC50,[5]; Table S1,311 µM
same,competition of mouse S100A9 interaction with solid-phase mouse TLR4/MD2,[6]; 100 nM mouse S100A9,competed
same,IC50,[6]; Table S1,698 µM
same,IC50,[7],334 µM
same,IC50,[8],334 µM
same,ED50,[9],0.04 mg/kg
same,TNFα production after LPS challenge,"[10]; 3 μg LPS i.p., treatment 2 h before (ABR-215757 10 mg/kg)",significantly inhibited
same,TNFα production after LPS challenge,"[10]; 6 μg LPS i.p., 10 mg/kg 2 h before",significantly inhibited
same,direct binding to RAGE,[11],not observed
same,direct binding to hTLR4/MD2,[12],negligible
same,binding of S100A8 to immobilised Q compound,[13],close to baseline levels
